# Test results taken from article PMC10612060 (Viruses, 2023).
# pEC50: −log10 of the molar value. Where “and” joins values, the source holds several entries; their conditions need not be identical. Equal entries are not always repeated. Where two headings read alike, the source gives them in different places.
# Key:
# [1] = tested on: SARS-CoV-2 gamma strain hCoV-19/Japan/TY7-501/2021; assay type: in vivo, BALB/c mice
# [2] = in vivo; set-up: species or system mice; details: mouse plasma, simulated; for Cmax / AUC(0-t): BALB/c, mouse, in vivo, po; for AUC(0-t): read-out: AUC0–48h
# [3] = Adverse effects in rodents at exposure of the maximum dose; assay type: in vivo; details: same exposure conditions as the maximum dose administered to mice
# [4] = tested on: SARS-CoV-2 gamma strain (hCoV-19/Japan/TY7-501/2021); details: cited from earlier work; for Viral titer in lungs: twice daily for 2 d, Day 2, individual mice 1-5, previously reported ref 12
# [5] = tested on: SARS-CoV-2 gamma strain (hCoV-19/Japan/TY7-501/2021); set-up: method as in earlier work; details: extrapolated to 100% mouse serum, cited from earlier work
# [6] = 8 mg/kg, thrice daily for 2 d, 8 mg/kg oral
# [7] = 8 mg/kg, twice daily for 2 d, 8 mg/kg oral
# [8] = 16 mg/kg, once daily for 2 d, 16 mg/kg oral
# [9] = 16 mg/kg, thrice daily for 2 d, 16 mg/kg oral
# [10] = 16 mg/kg, twice daily for 2 d, 16 mg/kg oral
# [11] = 32 mg/kg, once daily for 2 d, 32 mg/kg oral
# [12] = 32 mg/kg, one shot, 32 mg/kg oral
# [13] = 32 mg/kg, thrice daily for 2 d, 32 mg/kg oral
# [14] = 32 mg/kg, twice daily for 2 d, 32 mg/kg oral
# [15] = 64 mg/kg, once daily for 2 d, 64 mg/kg oral
# [16] = 64 mg/kg, one shot, 64 mg/kg oral
# [17] = 64 mg/kg, thrice daily for 2 d, 64 mg/kg oral
# [18] = 64 mg/kg, twice daily for 2 d, 64 mg/kg oral
structure (smiles),measurement,setting,value
"Cn1cnc(Cn2c(=O)[nH]/c(=N\c3cc4cn(C)nc4cc3Cl)n(Cc3cc(F)c(F)cc3F)c2=O)n1 [ensitrelvir, ensitrelvir fumaric acid]",Antiviral activity when administration delayed 72 h post-infection,[1]; given during the viral clearance phase,dose-dependent antiviral activity
same,Dose that significantly lowered lung viral titers compared to vehicle,"[1]; mouse, in vivo",≥ 8 mg/kg
same,Cmax,[2]; [6],21500 ng/mL
same,AUC(0-t),[2]; [6],657 µg·h/mL
same,Cmax,[2]; [7],18100 ng/mL
same,AUC(0-t),[2]; [7],446 µg·h/mL
same,Cmax,[2]; [8],38800 ng/mL
same,AUC(0-t),[2]; [8],475 µg·h/mL
same,Cmax,[2]; [9],47600 ng/mL
same,AUC(0-t),[2]; [9],1390 µg·h/mL
same,Cmax,[2]; [10],41300 ng/mL
same,AUC(0-t),[2]; [10],941 µg·h/mL
same,Cmax,[2]; [11],72500 ng/mL
same,AUC(0-t),[2]; [11],1020 µg·h/mL
same,Cmax,[2]; [12],72400 ng/mL
same,AUC(0-t),[2]; [12],510 µg·h/mL
same,Cmax,[2]; [13],96000 ng/mL
same,AUC(0-t),[2]; [13],2960 µg·h/mL
same,Cmax,[2]; [14],79700 ng/mL
same,AUC(0-t),[2]; [14],2010 µg·h/mL
same,Cmax,[2]; [15],160000 ng/mL
same,AUC(0-t),[2]; [15],2670 µg·h/mL
same,Cmax,[2]; [16],159000 ng/mL
same,AUC(0-t),[2]; [16],1340 µg·h/mL
same,Cmax,[2]; [17],232000 ng/mL
same,AUC(0-t),[2]; [17],7650 µg·h/mL
same,Cmax,[2]; [18],188000 ng/mL
same,AUC(0-t),[2]; [18],5230 µg·h/mL
same,C48h,"[2]; once daily for 2 d, 16 mg/kg oral",75.8 ng/mL
same,C48h,"[2]; once daily for 2 d, 32 mg/kg oral",210 ng/mL
same,C48h,"[2]; once daily for 2 d, 64 mg/kg oral",1290 ng/mL
same,C48h,"[2]; one shot, 32 mg/kg oral",0.0591 ng/mL
same,C48h,"[2]; one shot, 64 mg/kg oral",1.11 ng/mL
same,C48h,"[2]; thrice daily for 2 d, 8 mg/kg oral",5740 ng/mL
same,C48h,"[2]; thrice daily for 2 d, 16 mg/kg oral","11,600 ng/mL"
same,C48h,"[2]; thrice daily for 2 d, 32 mg/kg oral","30,000 ng/mL"
same,C48h,"[2]; thrice daily for 2 d, 64 mg/kg oral","88,300 ng/mL"
same,C48h,"[2]; twice daily for 2 d, 8 mg/kg oral",1840 ng/mL
same,C48h,"[2]; twice daily for 2 d, 16 mg/kg oral",3760 ng/mL
same,C48h,"[2]; twice daily for 2 d, 32 mg/kg oral","11,400 ng/mL"
same,C48h,"[2]; twice daily for 2 d, 64 mg/kg oral","42,000 ng/mL"
same,Adverse effects,[3],No adverse effects were observed
same,Viral titer in lungs,"[4]; 8 mg/kg oral from 24 h post-infection, 8 mg/kg",5.80 log10 TCID50/mL (2×) and 5.97 log10 TCID50/mL (2×) and 5.63 log10 TCID50/mL
same,Viral titer in lungs,"[4]; 16 mg/kg oral from 24 h post-infection, 16 mg/kg",5.80 log10 TCID50/mL and 5.63 log10 TCID50/mL and 5.53 log10 TCID50/mL (2×) and 4.97 log10 TCID50/mL
same,Viral titer in lungs,"[4]; 32 mg/kg oral from 24 h post-infection, 32 mg/kg",4.30 log10 TCID50/mL and 3.80 log10 TCID50/mL and 4.63 log10 TCID50/mL (3×)
same,Viral titer in lungs,"[4]; 64 mg/kg oral from 24 h post-infection, 64 mg/kg",2.80 log10 TCID50/mL and 3.80 log10 TCID50/mL (2×) and 3.63 log10 TCID50/mL and 3.30 log10 TCID50/mL
same,Mouse PA-EC50,[5],2.09 µg/mL
same,pEC50,[5]; read-out: Mouse PA-EC50,5.41
"CC(C)(C)[C@H](NC(=O)C(F)(F)F)C(=O)N1C[C@H]2[C@@H]([C@H]1C(=O)N[C@H](C#N)C[C@@H]1CCNC1=O)C2(C)C [nirmatrelvir, reference compound]",Antiviral activity in this model,[4]; delayed-treatment mouse model,demonstrates antiviral activity
